Several values for one entry are separate records, joined by “and”; a condition that tells them apart may be missing. Equal values may be shown once.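 1) Cells in 96-well plates. 2) Compound, 48 h, 5 concentrations. 3) Linear interpolation between surrounding doses. 4) Unreached endpoint = highest concentration. Abbreviation: GI50, concentration required for 50% inhibition of growth. The concentration for full growth arrest is given as TGI.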
What was measured:
Test in all cases: NCI tumour cell line growth inhibition, 48 h
MALME-3M melanoma = test system: MALME-3M melanoma
MDA-N = test system: MDA-N
HCT-116 colon = test system: HCT-116 colon
UO-31 renal = test system: UO-31 renal
SK-MEL-2 melanoma = test system: SK-MEL-2 melanoma
A498 renal = test system: A498 renal
K-562 leukemia = test system: K-562 leukemia
HCC-2998 colon = test system: HCC-2998 colon
HOP-92 NSCLC = test system: HOP-92 NSCLC
SN12C renal = test system: SN12C renal

Compound	TGI (MALME-3M melanoma)	TGI (MDA-N) [µM]	TGI (HCT-116 colon)	TGI (UO-31 renal)	TGI (SK-MEL-2 melanoma)	TGI (A498 renal)	TGI (K-562 leukemia)	TGI (HCC-2998 colon)	TGI (HOP-92 NSCLC)	TGI (SN12C renal)	GI50 (MALME-3M melanoma) [µM]	GI50 (HCT-116 colon) [µM]	GI50 (UO-31 renal) [µM]	GI50 (SK-MEL-2 melanoma) [µM]	GI50 (A498 renal) [µM]	GI50 (K-562 leukemia) [µM]	GI50 (HCC-2998 colon) [µM]	GI50 (HOP-92 NSCLC) [µM]	GI50 (SN12C renal) [µM]
COC(=O)C1CCC(=O)N1C(c1ccccc1)c1ccc(OC)c(OC)c1 (stereo not drawn)	> 100 µM	> 100	> 100 µM	> 100 µM	> 100 µM	> 100 µM	> 100 µM	> 100 µM	> 100 µM	> 100 µM									
Cc1cc(O)c2c(=O)c3ccccc3[nH]c2c1	> 100 µM	> 100	65.2 µM		> 100 µM	82.6 µM		> 100 µM	> 100 µM	> 100 µM									
O=C(O)CN(CC(=O)O)C1CCCCC1N(CC(=O)O)CC(=O)NCCN=C=S (stereo not drawn)	> 100 µM	> 100	> 100 µM	> 100 µM	> 100 µM	> 100 µM	> 100 µM	> 100 µM	> 100 µM	> 100 µM									
CC(C)/C(Cl)=N\OC(=O)Nc1ccc(S(N)(=O)=O)cc1	10.1 µM	32.9	27.7 µM	30.2 µM	34.1 µM	31.7 µM	5.52 µM	32.7 µM	10.1 µM	29.2 µM									
COc1cc(/C=C/C(=N\NS(=O)(=O)c2ccc(C)cc2)c2sc(NNC(C)=O)nc2C)ccc1O	> 100 µM	> 100	> 100 µM	> 100 µM	> 100 µM	> 100 µM		> 100 µM	> 100 µM	> 100 µM									
Cc1cccc(/C=N/NC(=S)Nc2ccccc2)n1	64.2 µM	> 100		> 31.2 µM	36 µM	67 µM	> 100 µM	> 61.6 µM	> 92.9 µM	12.3 µM									
CCC1(O)CC2CC(=O)OC2C1O (stereo not drawn)	> 100 µM	> 100		> 100 µM	> 100 µM	> 100 µM	> 100 µM	> 100 µM	> 100 µM										
COc1c(C)c(C/C=C(\C)CCCCO[Si](c2ccccc2)(c2ccccc2)C(C)(C)C)c(OC)c(OC)c1OC	> 100 µM	> 46.4	> 46.4 µM	19.4 µM	> 100 µM	> 100 µM	> 46.4 µM	> 46.4 µM	> 31.6 µM	> 46.3 µM									
C=C(Br)C(C)(Cl)CCC(Br)C(C)(C)Cl (stereo not drawn)	57.8 µM	> 100	> 100 µM	> 100 µM		> 100 µM	> 100 µM	> 100 µM	95.6 µM	> 100 µM									
CC(C)CC(=O)OC[n+]1ccc(-c2c(COC(=O)NC(C)C)c(COC(=O)NC(C)C)c3n2CCC3)cc1	> 100 µM	> 100	> 100 µM	> 100 µM	> 100 µM	> 100 µM	> 100 µM	> 100 µM	> 100 µM	> 100 µM									
O=C1/C(=C/c2ccc(O)cc2)CC/C1=C\c1ccc(O)cc1	> 100 µM	> 100	> 100 µM	> 100 µM	> 100 µM	> 100 µM	> 100 µM	> 100 µM	> 100 µM	> 100 µM									
Oc1cc2c3c(c1)c1cc4c(cc1c[n+]3CC2)OCO4	7.85 µM	> 100	> 40.5 µM	> 100 µM	> 84.5 µM	> 74.7 µM	> 100 µM	25.9 µM	> 75.6 µM	5.71 µM									
CN1CCN([C@H]2C[C@H]3[C@@H]4CC=C5C[C@@H](O)CC[C@]5(C)[C@H]4CC[C@]3(C)C2=O)CC1	> 100 µM	> 100	> 100 µM	> 100 µM	> 100 µM	> 100 µM	> 100 µM	> 100 µM	> 100 µM	> 100 µM									
CCOC(=O)Nn1c(C)nnc1-c1ccccc1	> 100 µM	> 100	> 100 µM	> 100 µM	> 100 µM	> 100 µM	> 100 µM	> 100 µM	> 100 µM	> 100 µM									
O=C1OCC(O)=C1C(c1ccc(Cl)cc1)c1cc2c(cc1O)OCO2 (stereo not drawn)	> 100 µM	> 100	> 100 µM	> 100 µM	> 100 µM	> 100 µM	> 100 µM	> 100 µM	> 100 µM	> 100 µM									
COc1ccc2c(=O)c(O)c(-c3ccc(OC)c(OC)c3)oc2c1	> 100 µM	> 100	> 100 µM	> 100 µM		> 100 µM	> 100 µM	> 100 µM	9.17 µM										
O=C(Cc1cccs1)N[C@@H]1C(=O)N2C(C(=O)OC(c3ccccc3)c3ccccc3)=C(CO)CS[C@H]12	> 100 µM	> 100	> 100 µM	> 100 µM	> 100 µM	> 100 µM	> 100 µM	> 100 µM	> 100 µM	> 100 µM									

Compound	TGI (MALME-3M melanoma)	TGI (MDA-N) [µM]	TGI (HCT-116 colon)	TGI (UO-31 renal)	TGI (SK-MEL-2 melanoma)	TGI (A498 renal)	TGI (K-562 leukemia)	TGI (HCC-2998 colon)	TGI (HOP-92 NSCLC)	TGI (SN12C renal)	GI50 (MALME-3M melanoma) [µM]	GI50 (HCT-116 colon) [µM]	GI50 (UO-31 renal) [µM]	GI50 (SK-MEL-2 melanoma) [µM]	GI50 (A498 renal) [µM]	GI50 (K-562 leukemia) [µM]	GI50 (HCC-2998 colon) [µM]	GI50 (HOP-92 NSCLC) [µM]	GI50 (SN12C renal) [µM]
N=c1n(C(=O)N2CCCC2)c2cc(Cl)ccc2n1C1=NCCN1	> 100 µM	> 100	> 100 µM		> 100 µM	> 100 µM	> 100 µM	> 100 µM	> 100 µM	> 100 µM									
COc1ccc(C2c3cc4c(cc3OC(NNS(=O)(=O)c3ccc(C)cc3)C2C)OCO4)cc1 (stereo not drawn)	> 100 µM	> 100	> 100 µM	> 100 µM	> 100 µM	> 100 µM	> 100 µM	> 100 µM	85.3 µM	> 100 µM									
Cc1ccc(SCC(CSCCO)OCn2cnc3c2NC(N)=NC32OCCO2)cc1 (stereo not drawn)	> 100 µM	> 100	> 100 µM	> 100 µM	> 100 µM	> 100 µM	> 100 µM	> 100 µM	> 100 µM										
Cc1c2cnccc2c(C)c2c1c1ccccc1n2CCCN	2.09 µM and 1.08 µM	1.39	0.609 µM and 0.628 µM	1.88 µM and 0.225 µM	1.59 µM and 1.42 µM	1.62 µM and 1.15 µM	0.794 µM and 0.598 µM	1.83 µM and 0.432 µM	1.22 µM and 2.14 µM	1.36 µM and 1.1 µM	0.313	0.121	0.0685	0.348	0.468	0.0402	0.23	0.776	0.25
O=c1[nH]cc(N=Cc2cc(Cl)cc(Cl)c2O)c(=O)[nH]1	49.9 µM	93.1	43.3 µM	> 100 µM	41.6 µM	> 100 µM	> 100 µM	95.7 µM	89 µM	> 100 µM									
COc1ccc(C(OCC2OC(n3cc(C)c(=O)[nH]c3=O)CC2n2cc(Cn3cc(I)c(=O)[nH]c3=O)nn2)(c2ccccc2)c2ccccc2)cc1 (stereo not drawn)	> 100 µM	> 100	> 100 µM	> 100 µM	> 100 µM	> 100 µM		> 100 µM	> 100 µM	> 100 µM									
CCOc1cc2c(cc1O)/C(=N\OC)C[C@@H]1[C@@H]2CC[C@]2(C)[C@@H](O)CC[C@@H]12	34.7 µM	0.031	> 38.7 µM	> 58.5 µM	4.42 µM	0.944 µM	> 100 µM	14.4 µM	> 96.6 µM	48.1 µM									
C[C@@]12C[C@@H](c3ccccc3O1)N1CCCCSC1=N2	> 100 µM	> 100	> 100 µM	> 100 µM	> 100 µM	> 100 µM	> 100 µM	> 100 µM	> 100 µM	> 100 µM									
CC[C@@]1(O)C(=O)OCc2c1cc1n(c2=O)Cc2c-1nc1ccccc1c2/C=N\NC(=O)CN	> 91.6 µM	> 100	16.1 µM	5.38 µM	> 100 µM	3.76 µM	> 100 µM	> 47.4 µM	21.8 µM	> 100 µM									
O=[N+]([O-])/C(C(Cl)=C(Cl)Cl)=C(\SCc1ccccc1)N1CCCCC1	27.1 µM	50.3	31.3 µM	56.5 µM	55 µM	70.1 µM	> 100 µM	45.7 µM	0.529 µM	47.6 µM									
Clc1cc(OC2C3CC4CC(C3)CC2C4)nc(Cl)n1 (stereo not drawn)	30.1 µM	53.9	27.5 µM	10.8 µM	25.8 µM	39.6 µM	24.1 µM	4.28 µM	3.41 µM	31 µM									
Oc1cccc2c(Cl)ccnc12	25.4 µM	> 100	15.2 µM	> 95.3 µM		> 43.5 µM	5.96 µM	14.9 µM	21.5 µM	> 55.2 µM									
Nc1cccc2cc(Cl)cnc12	> 100 µM	> 100	> 100 µM	> 100 µM		> 100 µM	> 100 µM	> 100 µM	> 100 µM	> 100 µM									
c1ccc(N=C2SC3=Nc4cccc5cccc(c45)N3C2=Nc2ccccc2)cc1	> 100 µM	> 100		> 100 µM	> 100 µM	> 100 µM	> 100 µM	> 100 µM	> 100 µM	> 100 µM									
O=[N+]([O-])C(=C1NCCN1)/C(Cl)=C(\Cl)Br	> 61.7 µM	> 100	> 73.2 µM	> 100 µM	> 100 µM	> 63.4 µM	31.2 µM	> 100 µM	> 62.2 µM	> 100 µM									
COC(=O)[C@H]1CO[C@@H](C(C)(C)C)N1C(=O)N1C=CC(=O)C[C@@H]1C	> 100 µM	> 100	> 100 µM	> 100 µM	> 100 µM	> 100 µM	> 100 µM		> 100 µM	> 100 µM									

— PubChem BioAssay (NCI)
